The values that follow come from patent US20050148633A1 (priority 2003, published 2005).

One experiment deals with RBL cells. Description: Inhibition of degranulation in RBL cells. The following applies: Rattus norvegicus, anti-DNP IgE / anti-IgE, read-out: concentration at which 50% of degranulation is inhibited. The experiment is classed as cell-based. The procedure: Procedure: • The day before the assay was performed, RBL cells, that had been grown to confluence in a 96 well plate, were incubated at 37° C. for at least 2 hours. The medium was replaced in each well with 100 μL of fresh medium containing of anti-DNP IgE.
On the following day, the cells were washed once with PRS (2.6 mM glucose and 0.1% BSA) and 160 μL of PRS was added to each well. The test compound was addded to a well in a 20 μL solution at 10× of the desired concentration and incubated for 20 to 40 minutes at 37° C. 20 μL of 10× mouse anti-IgE (10 μL/mL). Maximum degranulation occurred between 15 to 40 minutes after addition of anti-IgE.

The next experiment relates to TNF-α. The experiment can be described thus: Cytokine inhibition in PHA-stimulated primary human PBMCs: TNF-α. To be noted: PBMC. The experiment is classed as cell-based. The procedure:
(§1) Cytokine production was measured using commercially available human ELISA assay kits (from Cell Science, Inc.) following the manufacturers instructions.

Another experiment concerns IL-4. Description: Cytokine inhibition in PHA-stimulated primary human PBMCs: IL-4. Type of experiment: cell-based. The following applies: PBMC. The procedure:
as §1

In the next experiment the test system is IL-5. The experiment can be described thus: Cytokine inhibition in PHA-stimulated primary human PBMCs: IL-5. Type of experiment: cell-based. To be noted: PBMC. The procedure:
as §1

The subject of a further experiment is IL-2. Description: Cytokine inhibition in PHA-stimulated primary human PBMCs: IL-2. Type of experiment: cell-based. The following applies: PBMC. The procedure:
as §1

Experiment [1] concerns CRAC ion channel (ICRAC current). The experiment can be described thus: Patch clamp inhibition of ICRAC current in Jurkat cells. To be noted: 1 μM compound, n=3. Type of experiment: cell-based, human. The procedure:
In general, a whole cell patch clamp method was used to examine the effects of a compound of the invention on a channel that mediates Icrac. In such experiments, a baseline measurement was established for a patched cell. Then a compound to be tested was perfused (or puffed) to cells in the external solution and the effect of the compound on Icrac was measured. A compound that modulates Icrac (e.g., inhibits) is a compound that is useful in the invention for modulating CRAC ion channel activity.
Jurkat T cells were grown on glass coverslips, transferred to the recording chamber and kept in a standard modified Ringers solution of the following composition: NaCl 145 mM, KCl 2.8 mM, CsCl 10 mM, CaCl2 10 mM, MgCl2 2 mM, glucose 10 mM, HEPES.NaOH 10 mM, pH 7.2.
The external solution contained 10 mM CaNaR, 11.5 mM glucose and the test compound at the concentrations described below.
The standard intracellular pipette solution contained: Cs-glutamate 145 mM, NaCl 8 mM, MgCl2 1 mM, ATP 0.5 mM, GTP 0.3 mM, pH 7.2 adjusted with CsOH. […]
Patch-clamp experiments were performed in the tight-seal whole-cell configuration at 21-25° C. […] Capacitive currents and series resistance were determined and corrected before each voltage ramp using the automatic capacitance compensation of the EPC-9. […]

The next experiment deals with IL-2 production. The experiment can be described thus: Inhibition of IL-2 production in PHA-activated Jurkat cells (ELISA). Type of experiment: cell-based. The following applies: Homo sapiens. (In general: ELISA stands for enzyme-linked immunosorbent assay.)
The test system of the next experiment is INF-γ. The experiment can be described thus: Cytokine inhibition in PHA-stimulated primary human PBMCs: INF-γ. Type of experiment: cell-based. To be noted: PBMC. The procedure: as §1
The next experiment deals with IL-13. The experiment can be described thus: Cytokine inhibition in PHA-stimulated primary human PBMCs: IL-13. The following applies: PBMC. Type of experiment: cell-based. The procedure:
as §1

For the next experiment, the system named is IL-10. Description: Cytokine inhibition in PHA-stimulated primary human PBMCs: IL-10. The experiment is classed as cell-based. To be noted: PBMC. The procedure:
as §1

The test system of the next experiment is GM-CSF. The experiment can be described thus: Cytokine inhibition in PHA-stimulated primary human PBMCs: GM-CSF. The experiment is classed as cell-based. To be noted: PBMC. The procedure: as §1
The target in another experiment is T1, TRPM4 (Homo sapiens, UniProt Q8TD43).
T1 construct: FLAG (N); expressed in transfected cells; host or cells: HEK 293 (tetracycline-induced FLAG-humanTRPM4/pCDNA4/TO); also Jurkat cells (endogenous TRPM4)
T1 sequence (Q8TD43 whole entry): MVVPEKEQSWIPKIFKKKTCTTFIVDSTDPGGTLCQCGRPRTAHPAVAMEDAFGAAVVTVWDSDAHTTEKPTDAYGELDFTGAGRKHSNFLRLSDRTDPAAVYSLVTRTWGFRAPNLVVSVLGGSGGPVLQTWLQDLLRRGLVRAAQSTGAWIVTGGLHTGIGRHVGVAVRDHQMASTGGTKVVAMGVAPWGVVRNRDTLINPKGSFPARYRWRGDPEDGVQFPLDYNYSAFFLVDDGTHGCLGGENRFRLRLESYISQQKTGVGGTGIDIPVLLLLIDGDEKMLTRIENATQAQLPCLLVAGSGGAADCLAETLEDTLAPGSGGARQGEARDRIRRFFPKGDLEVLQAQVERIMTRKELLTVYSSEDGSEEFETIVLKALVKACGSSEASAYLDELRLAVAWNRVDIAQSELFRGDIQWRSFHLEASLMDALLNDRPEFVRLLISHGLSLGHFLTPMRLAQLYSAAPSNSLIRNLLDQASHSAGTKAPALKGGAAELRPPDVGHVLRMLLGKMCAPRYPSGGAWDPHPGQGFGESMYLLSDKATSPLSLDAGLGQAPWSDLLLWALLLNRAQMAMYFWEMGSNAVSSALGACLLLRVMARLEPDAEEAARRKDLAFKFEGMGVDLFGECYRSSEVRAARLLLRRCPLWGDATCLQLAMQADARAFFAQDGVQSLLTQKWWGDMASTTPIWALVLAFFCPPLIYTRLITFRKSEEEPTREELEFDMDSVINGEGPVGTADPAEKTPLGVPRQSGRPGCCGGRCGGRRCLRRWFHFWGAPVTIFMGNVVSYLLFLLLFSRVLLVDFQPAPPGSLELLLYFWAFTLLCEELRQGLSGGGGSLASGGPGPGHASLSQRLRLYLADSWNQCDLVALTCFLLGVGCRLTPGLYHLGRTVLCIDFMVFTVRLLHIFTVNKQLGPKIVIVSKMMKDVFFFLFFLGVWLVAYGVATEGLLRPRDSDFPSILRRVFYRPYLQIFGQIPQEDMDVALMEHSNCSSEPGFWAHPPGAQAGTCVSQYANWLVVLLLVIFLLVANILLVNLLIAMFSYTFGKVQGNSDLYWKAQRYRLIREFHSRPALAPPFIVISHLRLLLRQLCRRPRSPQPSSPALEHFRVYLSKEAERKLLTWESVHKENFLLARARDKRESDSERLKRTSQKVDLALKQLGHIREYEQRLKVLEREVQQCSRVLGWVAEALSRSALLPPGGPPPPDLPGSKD
The experiment can be described thus: Activation of TRPM4 channel, whole-cell patch clamp in Jurkat cells and HEK-293 cells overexpressing TRPM4. The experiment is classed as cell-based. The following applies: free intracellular calcium 300 nM. The procedure:
Human leukemic T cells (Jurkat cells) and HEK 293 cells transfected with the FLAG-humanTRPM4/pCDNA4/TO construct were grown on glass coverslips with DMEM medium supplemented with 10% FBS, blasticidin (5 μg/mL) and zeocin ([…]). TRPM4 expression was induced one day before use by adding 1 μg/mL tetracycline to the culture medium and patch clamp experiments were performed 16-24 hours post-induction (for additional details see Launay et al. (2000)).
Patch clamp experiments were performed in the tight-seal whole-cell configuration at 21-25° C. High resolution current recordings were acquired by a computer-based patch clamp amplifier system (EPC-9, HEKA, Lambrecht, Germany). Patch pipettes had resistances between […] after filling with the standard intracellular solution. […] Capacitive currents and series resistance were determined and corrected before each voltage ramp using the automatic capacitance compensation of the EPC-9. The low resolution temporal development of membrane currents was assessed by extracting the current amplitude at −80 mV or +80 mV from individual ramp current records.
TRPM4 currents were measured in Jurkat cells and HEK-293 cells overexpressing TRPM4. […]
For orientation: In patch-clamp work, channel activity is measured electrically.

The mark [2] stands for this setting: PHA 2.5 μg/mL, 20 hours, value bins.

Regarding `COc1ccc(CCCOC(Cn2ccnc2)c2ccc(OC)cc2)cc1` (stereo not drawn) [SKF96365, reference compound], in the experiment on RBL cells, the IC50 was over 20000 nM.

For `COc1ccc(OC)c(-c2ccc(NC(=O)c3ccncc3F)cc2)c1` [Compound 66, 3-fluoro-pyridine-4-carboxylic acid (2′,5′-dimethoxybiphenyl-4-yl)-amide], the IC50 is 271 nM with TNF-α; 445 nM with IL-4; 21 nM in the experiment with IL-5; 20 nM in the experiment with IL-2; 430 nM with RBL cells; under 100 nM with IL-2 production (setting [2]). The IC50 with INF-γ is 88 nM; in the experiment on IL-13 it was 75 nM; with IL-10, over 1000 nM; with GM-CSF, 448 nM. The “inhibition of Icrac in Jurkat cells” value in experiment [1] is listed as over 90%.

`Cc1nnsc1C(=O)Nc1ccc(-c2cc(C(F)(F)F)ccc2C(F)(F)F)cc1` [Compound 24, 4-Methyl-[1,2,3]thiadiazole-5-carboxylic acid (2′,5′-bis-trifluoromethyl-biphenyl-4-yl)-amide] came in with an IC50 in the experiment with IL-2 production (setting [2]) of under 100 nM. Also, the EC50 (commonly the concentration needed to bring the measured effect to its halfway point) on TRPM4 was 20 to 50 nM.

In the experiment with IL-2 production (setting [2]), `O=C(Nc1ccc(-c2cc(C(F)(F)F)ccc2Cl)cc1)c1cccc(F)c1F` [Compound 23] came in with an IC50 of under 100 nM. At TRPM4, the EC50 is 20 to 50 nM.

In the case of `CSc1ccccc1-c1ccc(NC(=O)c2ccncc2C)cc1` [Compound 75, 3-methyl-pyridine-4-carboxylic acid (2′-methylsulfanyl-biphenyl-4-yl)-amide], the IC50 in the experiment on TNF-α was 81 nM; in the experiment with IL-4, 103 nM; with IL-5, 7 nM; with IL-2, 4 nM; in the experiment on IL-2 production (setting [2]), under 100 nM; in the experiment with INF-γ it was 23 nM. Also, the IC50 in the experiment on IL-13 is 15 nM; with IL-10, over 1000 nM; in the experiment with GM-CSF it was 152 nM.

Turning to `CCc1ccccc1-c1ccc(NC(=O)c2ccncc2C)cc1` [Compound 76, 3-methyl-pyridine-4-carboxylic acid (2′-ethyl-biphenyl-4-yl)-amide], the IC50 in the experiment with IL-2 production (setting [2]) is under 100 nM.

`O=C(Nc1ccc(-c2c(C(F)(F)F)cc3ccccn23)cc1)c1cc(F)ccc1F` [Compound 90, 2,5-Difluoro-N-[4-(2-trifluoromethyl-indolizin-3-yl)-phenyl]-benzamide] displayed an IC50 in the experiment with IL-2 production (setting [2]) of 100 to 500 nM.

With `COc1ccc(OC)c(-c2ccc(NC(=O)c3ccccc3C)cc2)c1` [Compound 59, N-(2′,5′-dimethoxy-biphenyl-4-yl)-2-methylbenzamide], the IC50 in the experiment with IL-2 production (setting [2]) is under 100 nM.

As to `Cc1cnccc1C(=O)Nc1ccc(-c2cc(C(F)(F)F)ccc2Cl)cc1` [Compound 74, 3-methyl-pyridine-4-carboxylic acid (2′-chloro-5′-trifluoromethylbiphenyl-4-yl)-amide], the IC50 with IL-2 production (setting [2]) is under 100 nM.

Compound `O=C(Nc1ccc(-c2cc(C(F)(F)F)ccc2C(F)(F)F)cc1)c1ccccc1O` [Compound 49, N-(2′,5′-bis-trifluoromethyl-biphenyl-4-yl)-2-hydroxybenzamide] yielded an IC50 in the experiment with IL-2 production (PHA, bin 500 nM-1 μM) of 500 to 1000 nM.
